Laboratory results: patent publication US20070128217A1 (priority 2003, published 2007)

Legend:
[1] = test system: control sera (pooled serum of ten healthy LUMC hospital workers; commercial negative donor pooled serum from the Dutch bloodbank); assay type: binding, human; design: Binding of Control serum LUMC to linear peptides / Binding of Control serum Blood-bank to linear peptides / Binding of Control serum LUMC to looped peptides / Binding of Control Serum Blood-Bank to Looped peptides / Binding of Control serum LUMC to linear peptides of the protein M of SARS-CoV Urbani / Binding of Control serum Blood-bank to linear peptides of the protein M of SARS-CoV Urbani / Binding of Control serum LUMC to looped peptides of the protein M of SARS-CoV Urbani / Binding of Control Serum Blood-Bank to Looped peptides of the protein M of SARS-CoV Urbani: unit not given here
[2] = test system: rabbit serum obtained by immunizing a rabbit with the SARS-CoV strain Frankfurt 1; assay type: binding; design: Binding of a rabbit serum to linear peptides / Binding of a rabbit serum to looped peptides / Rabbit serum linear peptides / Rabbit serum looped peptides / Binding of a rabbit serum to linear peptides of protein N of SARS-CoV Urbani (Rabbit serum linear peptides) / Binding of a rabbit serum to looped/cyclic peptides of protein N of SARS-CoV Urbani (Rabbit serum looped peptides): unit not given here
[3] = test system: antibodies in sera from SARS patients (sera 1a, 1b, 2, 6, 37, 62, London, SARS-yellow, SARS-green); assay type: binding, human; design: Binding of serum 6 to linear peptides of protein X1 of SARS-CoV Urbani / Binding of serum 37 to linear peptides of protein X1 of SARS-CoV Urbani / Binding of serum 6 to looped/cyclic peptide (PEPSCAN-ELISA) / Binding of serum 37 to looped/cyclic peptide (PEPSCAN-ELISA) / Binding of serum 37 to looped/cyclic peptides of protein X1 of SARS-CoV Urbani / Binding of serum 6 to linear peptides of protein X2 / Binding of serum 37 to linear peptides of protein X2 / Binding of serum 37 to looped/cyclic peptides of protein X2 of SARS-CoV Urbani / Binding of serum 6 to linear peptides of protein M of SARS-CoV Urbani / Binding of serum 37 to linear peptides of protein M of SARS-CoV Urbani / Binding of serum 6 to looped/cyclic peptides of protein M of SARS-CoV Urbani / Binding of serum 37 to looped/cyclic peptides of protein M of SARS-CoV Urbani / Binding of serum 6 to linear peptides of protein X3 of SARS-CoV Urbani / Binding of serum 37 to linear peptides of protein X3 of SARS-CoV Urbani / Binding of serum 37 to looped/cyclic peptides of protein X3 of SARS-CoV Urbani / Binding of serum 6 to linear peptides of protein X4 of SARS-CoV Urbani / Binding of serum 37 to linear peptides of protein X4 of SARS-CoV Urbani / Binding of serum 37 to looped/cyclic peptides of protein X4 of SARS-CoV Urbani / Binding of serum 6 to linear peptides of protein X5 of SARS-CoV Urbani / Binding of serum 37 to linear peptides of protein X5 of SARS-CoV Urbani / Binding of serum 37 to looped/cyclic peptides of protein X5 of SARS-CoV Urbani / Binding of serum 6 to linear peptides of protein N of SARS-CoV Urbani / Binding of serum 37 to linear peptides of protein N of SARS-CoV Urbani / Binding of serum 6 to linear peptide (PEPSCAN-ELISA) / Binding of serum 1a to looped/cyclic peptides of protein N of SARS-CoV Urbani / Binding of serum 1b to looped/cyclic peptides of protein N of SARS-CoV Urbani / Binding of serum 2 to looped/cyclic peptides of protein N of SARS-CoV Urbani / Binding of serum 6 to looped/cyclic peptides of protein N of SARS-CoV Urbani / Binding of serum 37 to looped/cyclic peptides of protein N of SARS-CoV Urbani / Binding of serum 62 to looped/cyclic peptides of protein N of SARS-CoV Urbani / Binding of serum London to looped/cyclic peptides of protein N of SARS-CoV Urbani / Binding of serum SARS-green to looped/cyclic peptides of protein N of SARS-CoV Urbani: unit not given here

Sequence	Binding of Control Serum Blood-Bank to Looped peptides [1]	Binding of Control serum Blood-bank to linear peptides [1]	Binding of Control serum LUMC to linear peptides [1]	Binding of Control serum LUMC to looped peptides [1]	Binding of serum 1a to linear peptides of protein X4 of SARS-CoV Urbani [3]	Binding of serum 1a to looped/cyclic peptides of protein X4 of SARS-CoV Urbani [3]	Binding of serum 1b to linear peptides of protein X4 of SARS-CoV Urbani [3]	Binding of serum 1b to looped/cyclic peptides of protein X4 of SARS-CoV Urbani [3]	Binding of serum 2 to linear peptides of protein X4 of SARS-CoV Urbani [3]	Binding of serum 2 to looped/cyclic peptides of protein X4 of SARS-CoV Urbani [3]	Binding of serum 6 to linear peptides of protein X4 of SARS-CoV Urbani [3]	Binding of serum 6 to looped/cyclic peptides of protein X4 of SARS-CoV Urbani [3]	Binding of serum 37 to linear peptides of protein X4 of SARS-CoV Urbani [3]	Binding of serum 37 to looped/cyclic peptides of protein X4 of SARS-CoV Urbani [3]	Binding of serum 62 to linear peptides of protein X4 of SARS-CoV Urbani [3]	Binding of serum 62 to looped/cyclic peptides of protein X4 of SARS-CoV Urbani [3]	Binding of serum London to linear peptides of protein X4 of SARS-CoV Urbani [3]	Binding of serum London to looped/cyclic peptides of protein X4 of SARS-CoV Urbani [3]	Binding of serum SARS-green to linear peptides of protein X4 of SARS-CoV Urbani [3]	Binding of serum SARS-green to looped/cyclic peptides of protein X4 of SARS-CoV Urbani [3]	other results
DGTRHTYQLRARSVS	0.8	0.6	0.5	0.7	0.6	0.8	0.5	0.5	0.8	0.8	0.8	0.8	0.8	0.7	0.7	0.7	0.7	0.4	0.4	0.6	Recognition of the peptide by the rabbit serum [2]: recognized; Binding of serum SARS-yellow to linear peptides of protein X4 of SARS-CoV Urbani [3]: 0.5; Binding of serum SARS-yellow to looped/cyclic peptides of protein X4 of SARS-CoV Urbani [3]: 0.7
FTSCELYHYQECVRG	0.8	0.7	0.7	0.8	0.8	0.8	0.7	0.7	0.5	0.6	0.9	0.6	0.8	0.8	0.8	0.7	0.9	0.3	0.5	0.6	Rabbit serum linear peptides [2]: 0.4; Rabbit serum looped peptides [2]: 0.3; Binding of serum SARS-yellow to linear peptides of protein X4 of SARS-CoV Urbani [3]: 0.3; Binding of serum SARS-yellow to looped/cyclic peptides of protein X4 of SARS-CoV Urbani [3]: 0.5
